Source: publication PMC11432405, “Development of Novel Alaninamide Derivatives with Anticonvulsant Activity and Favorable Safety Profiles in Animal Models” (International Journal of Molecular Sciences, 2024)
Read-outs that look alike come from different tables or passages of the source.

Assays:
[1] = system: maximal electroshock (MES) seizures; test: maximal electroshock seizure (MES) test; format: in vivo, mice; settings: mice i.p.; for responders at 100 mg/kg / ED50: Mus musculus, ip; for ED50: TPE 0.5 h, 95% confidence interval in parentheses
Text: Epilepsy is a multifaceted disorder with often unclear etiology, making it challenging to pinpoint a specific receptor or transporter as the definitive target. Consequently, the discovery of ASMs deviates from the traditional drug development pathway, which typically involves designing a new molecule, docking it with a specific biological target, and performing chemical synthesis, followed by in vitro assays. Instead, numerous animal seizure models, which mirror various types of human epileptic seizures, are initially employed in the process of new ASM discovery. This approach has been instrumental in the identification and introduction into clinical practice of all currently used ASMs and continues to be a cornerstone in the preclinical development of new anticonvulsants. The primary justification for prioritizing in vivo screening over in vitro binding and functional studies is the complex and often not fully elucidated mechanisms of action of known ASMs. This approach also facilitates the discovery of compounds with novel, previously undefined pharmacodynamic properties. In light of this, we evaluated all compounds obtained in the current studies using the MES test, which remains one of the most valuable preclinical screening models for tonic-clonic seizures, as well as partial convulsions with or without secondary generalization in humans. This test allows for a comprehensive assessment of the anticonvulsant efficacy of new ASM candidates and is considered highly relevant for predicting their therapeutic efficacy in human epilepsy. The MES test was carried out in mice following the intraperitoneal (i.p.) administration of a screening dose of 100 mg/kg in a group consisting of four animals. The efficacy of the compounds synthesized was evaluated at 0.5 h pretreatment time.
Fresh solutions were prepared daily for each experimentation session.
Each group consisted of six animals.

human recombinant MAO-B = target: T1, human recombinant MAO-B (Homo sapiens, UniProt P27338); test: fluorometric monoamine oxidase B inhibition assay; format: biochemical; settings: for inhibition at 1 µM: read-out: % inhibition MAO-B (1 µM), mean of two independent experiments; for % inhibition MAO-B (1 µM): mean of two independent experiments
T1 construct: purchased Sigma Aldrich
T1 sequence (P27338 1-520): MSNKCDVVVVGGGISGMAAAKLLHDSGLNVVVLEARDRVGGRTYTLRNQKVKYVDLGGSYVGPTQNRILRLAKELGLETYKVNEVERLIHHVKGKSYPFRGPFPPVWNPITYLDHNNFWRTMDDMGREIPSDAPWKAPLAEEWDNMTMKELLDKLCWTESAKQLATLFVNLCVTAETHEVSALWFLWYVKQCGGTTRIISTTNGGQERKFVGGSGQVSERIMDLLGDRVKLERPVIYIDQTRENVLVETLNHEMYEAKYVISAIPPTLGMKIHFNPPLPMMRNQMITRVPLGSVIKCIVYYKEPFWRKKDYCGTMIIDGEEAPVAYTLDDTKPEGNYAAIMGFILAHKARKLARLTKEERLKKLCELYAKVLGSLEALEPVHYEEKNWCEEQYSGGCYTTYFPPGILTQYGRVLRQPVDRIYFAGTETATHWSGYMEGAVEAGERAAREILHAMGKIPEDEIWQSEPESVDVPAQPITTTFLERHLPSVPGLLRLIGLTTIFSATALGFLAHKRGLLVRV

6 Hz (32 mA) seizures [2] = test: 6 Hz (32 mA) psychomotor seizure model; settings: for responders at 100 mg/kg / ED50: Mus musculus, ip; for responders at 100 mg/kg / protection (efficacy) in the 6 Hz (32 mA) screening / ED50: 0.5 h; for responders at 100 mg/kg: read-out: protection (efficacy) in the 6 Hz (32 mA) screening; for protection (efficacy) in the 6 Hz (32 mA) screening / 6 Hz (32 mA) test: number of mice protected / number of mice tested: mice i.p.; for protection (efficacy) in the 6 Hz (32 mA) screening: 100 mg/kg, four mice; for 6 Hz (32 mA) test: number of mice protected / number of mice tested: dose of 100 mg/kg, pretreatment time 0.5 h; for ED50: read-out: ED50 6 Hz (32 mA), mice i.p., TPE 0.5 h, 95% confidence interval in parentheses;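 for all read-outs here: adult male albino Swiss CD-1 mice, each used once, with compounds suspended in 1% Tween 80 in water as vehicle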
6 Hz (32 mA) seizures [3] = settings: cited from earlier work
6 Hz (44 mA) seizures = settings: TD50 rotarod / ED50 6 Hz (44 mA); cited from earlier work
[4] = system: maximal electroshock (MES) seizures; settings: cited from earlier work
[5] = rotarod test (acute neurological toxicity, motor coordination); format: in vivo; settings: male, CD-1 (albino Swiss), mouse, in vivo, ip, mice i.p.
Description: The protective indexes (PIs) were then calculated as the ratio of TD50 to ED50 (PI = TD50/ED50), providing an assessment of the therapeutic window for each compound.

[6] = 100 mg/kg, 0.5 h, four mice, read-out: protection (efficacy) in the MES screening
[7] = dose of 100 mg/kg, pretreatment time 0.5 h, read-out: MES test: number of mice protected / number of mice tested (converted)
[8] = dose of 100 mg/kg, pretreatment time 0.5 h

SMILES	responders at 100 mg/kg [1, 6]	responders at 100 mg/kg [1, 7]	inhibition at 1 µM (human recombinant MAO-B)	melting point	responders at 100 mg/kg (6 Hz (32 mA) seizures [2])	also measured
Cc1ccc(COc2ccc(CNC(=O)C(C)N3C(=O)CCC3=O)cc2)cc1 (stereo not shown) [Compound 20, 2-(2,5-dioxopyrrolidin-1-yl)-N-(4-((4-methylbenzyl)oxy)benzyl)propanamide]	≤ 25%	0%	0%			
CC(C(=O)NCc1cccc(OCc2ccccc2)c1)N1C(=O)CCC1=O (stereo not shown) [Compound 22, N-(3-(benzyloxy)benzyl)-2-(2,5-dioxopyrrolidin-1-yl)propanamide]	≤ 25%	25%	0%	105.3 to 106.1 °C		
CC(C(=O)NCc1ccc(OCc2ccccc2)cc1)N1CCCC1=O (stereo not shown) [Compound 36, N-(4-(benzyloxy)benzyl)-2-(2-oxopyrrolidin-1-yl)propanamide]		100%	0%	110.5 to 110.9 °C	25%	
CC(C(=O)NCc1ccc(OCc2ccc(F)cc2)cc1)N1C(=O)CCC1=O (stereo not shown) [Compound 8, 2-(2,5-dioxopyrrolidin-1-yl)-N-(4-((4-fluorobenzyl)oxy)benzyl)propanamide]						protection (efficacy) in the MES screening ([1]; 100 mg/kg, 0.5 h, four mice): 50%; % inhibition MAO-B (1 µM) (human recombinant MAO-B): 0%; protection (efficacy) in the 6 Hz (32 mA) screening (6 Hz (32 mA) seizures [2]): 50%
CCCC(CCC)C(=O)O [VPA, valproic acid]						PI (TD50/ED50) 6 Hz (6 Hz (32 mA) seizures [3]; TD50 rotarod / ED50 6 Hz (32 mA)): 3.3; ED50 6 Hz (32 mA) (6 Hz (32 mA) seizures [3]; mice i.p., TPE 0.5 h (LEV 1.0 h)): 130.6 (117.6–145.2) mg/kg; PI (TD50/ED50) 6 Hz (44 mA) (6 Hz (44 mA) seizures): 2.3; PI (TD50/ED50) MES ([4]; TD50 rotarod / ED50 MES): 1.7
CC(C)(C(=O)NCc1ccc(OCc2ccccc2)cc1)N1C(=O)CCC1=O [Compound 21, N-(4-(benzyloxy)benzyl)-2-(2,5-dioxopyrrolidin-1-yl)-2-methylpropanamide]	≤ 25%	25%	0%	170.3 to 171.2 °C		
CC(C(=O)NCc1ccc(OCc2ccc(Cl)cc2)cc1)N1C(=O)CCC1=O (stereo not shown) [Compound 11, N-(4-((4-chlorobenzyl)oxy)benzyl)-2-(2,5-dioxopyrrolidin-1-yl)propanamide]						protection (efficacy) in the MES screening ([1]; 100 mg/kg, 0.5 h, four mice): ≤ 25%; MES test: number of mice protected / number of mice tested [1, 8]: 0/4; % inhibition MAO-B (1 µM) (human recombinant MAO-B): 0%; protection (efficacy) in the 6 Hz (32 mA) screening (6 Hz (32 mA) seizures [2]): 25%; 6 Hz (32 mA) test: number of mice protected / number of mice tested (6 Hz (32 mA) seizures [2]): 1/4
CC(C(=O)NCc1ccc(OCc2ccccc2C(F)(F)F)cc1)N1CCCC1=O (stereo not shown) [Compound 37, 2-(2-oxopyrrolidin-1-yl)-N-(4-((2-(trifluoromethyl)benzyl)oxy)benzyl)propanamide]		100%	0%	121.8 to 122.5 °C	50%	
C[C@H](NCc1ccc(OCc2cccc(F)c2)cc1)C(N)=O [SAF, safinamide]						ED50 in the MES model ([4]; mice): 4.1 mg/kg
CC(C(=O)NCc1ccc(OCc2ccccc2C(F)(F)F)cc1)N1C(=O)CCC1=O (stereo not shown) [Compound 12, 2-(2,5-dioxopyrrolidin-1-yl)-N-(4-((2-(trifluoromethyl)benzyl)oxy)benzyl)propanamide]	100%	100%	0%	122.9 to 123.4 °C	75%	ED50 [1]: 46.2 mg/kg; TD50 at 0.5 h [5]: > 300 mg/kg; ED50 (6 Hz (32 mA) seizures [2]): 52.7 mg/kg
CC(C(=O)NCc1ccc(OCc2ccccc2F)cc1)N1C(=O)CCC1=O (stereo not shown) [Compound 6, 2-(2,5-dioxopyrrolidin-1-yl)-N-(4-((2-fluorobenzyl)oxy)benzyl)propanamide]						protection (efficacy) in the MES screening ([1]; 100 mg/kg, 0.5 h, four mice): 100%; MES test: number of mice protected / number of mice tested [1, 8]: 4/4; % inhibition MAO-B (1 µM) (human recombinant MAO-B): 0%; protection (efficacy) in the 6 Hz (32 mA) screening (6 Hz (32 mA) seizures [2]): 100%; 6 Hz (32 mA) test: number of mice protected / number of mice tested (6 Hz (32 mA) seizures [2]): 4/4
CC(C(=O)NCc1ccc(OCc2cccc(C(F)(F)F)c2)cc1)N1CCCC1=O (stereo not shown) [Compound 38, 2-(2-oxopyrrolidin-1-yl)-N-(4-((3-(trifluoromethyl)benzyl)oxy)benzyl)propanamide]		100%	2%	123.5 to 123.8 °C	75%	ED50 [1]: 54.8 mg/kg; TD50 at 0.5 h [5]: > 300 mg/kg; ED50 (6 Hz (32 mA) seizures [2]): 65.3 mg/kg
CC(C(=O)NCc1ccc(OCc2ccccc2OC(F)(F)F)cc1)N1C(=O)CCC1=O (stereo not shown) [Compound 15, 2-(2,5-dioxopyrrolidin-1-yl)-N-(4-((2-(trifluoromethoxy)benzyl)oxy)benzyl)propanamide]	50%	50%	0%	110.5 to 111.2 °C	25%	
CC(C(=O)NCc1ccc(OCc2cccc(OC(F)(F)F)c2)cc1)N1C(=O)CCC1=O (stereo not shown) [Compound 16, 2-(2,5-dioxopyrrolidin-1-yl)-N-(4-((3-(trifluoromethoxy)benzyl)oxy)benzyl)propanamide]	100%	100%	31%	112.2 to 112.9 °C	50%	ED50 [1]: 40.5 mg/kg; TD50 at 0.5 h [5]: > 300 mg/kg; ED50 (6 Hz (32 mA) seizures [2]): 63 mg/kg
CC(C(=O)NCc1ccc(OCc2cccc(C(F)(F)F)c2)cc1)N1C(=O)CCC1=O (stereo not shown) [Compound 13, 2-(2,5-dioxopyrrolidin-1-yl)-N-(4-((3-(trifluoromethyl)benzyl)oxy)benzyl)propanamide]	100%	100%	0%		100%	ED50 [1]: 69.7 mg/kg; TD50 at 0.5 h [5]: > 300 mg/kg; ED50 (6 Hz (32 mA) seizures [2]): 67.9 mg/kg
CC(C(=O)NCc1ccc(OCc2ccc(C(F)(F)F)cc2)cc1)N1C(=O)CCC1=O (stereo not shown) [Compound 14, 2-(2,5-dioxopyrrolidin-1-yl)-N-(4-((4-(trifluoromethyl)benzyl)oxy)benzyl)propanamide]	50%	50%	0%		50%	
Cc1cccc(COc2ccc(CNC(=O)C(C)N3C(=O)CCC3=O)cc2)c1 (stereo not shown) [Compound 19, 2-(2,5-dioxopyrrolidin-1-yl)-N-(4-((3-methylbenzyl)oxy)benzyl)propanamide]	≤ 25%	25%	0%		25%	
Cc1ccccc1COc1ccc(CNC(=O)C(C)N2C(=O)CCC2=O)cc1 (stereo not shown) [Compound 18, 2-(2,5-dioxopyrrolidin-1-yl)-N-(4-((2-methylbenzyl)oxy)benzyl)propanamide]	75%	75%	0%	126.1 to 126.8 °C	75%	ED50 [1]: 89.2 mg/kg; TD50 at 0.5 h [5]: > 300 mg/kg; ED50 (6 Hz (32 mA) seizures [2]): 57.7 mg/kg
CC(C(=O)NCc1ccccc1OCc1ccccc1)N1C(=O)CCC1=O (stereo not shown) [Compound 23, N-(2-(benzyloxy)benzyl)-2-(2,5-dioxopyrrolidin-1-yl)propanamide]	≤ 25%	25%	0%			
